These are literature values, as cited in patent US9913840B2, “Formulations for aripiprazole delivery transdermally” (Corium International, Inc., priority 2015, dated 2018).

The conditions of the data set: at room temperature.

Each structure is given as a SMILES string.

On to `O=C1CCc2ccc(OCCCCN3CCN(c4cccc(Cl)c4Cl)CC3)cc2N1` [Aripiprazole], for which the aqueous solubility result is “less than 1 μg/mL”.
